Molecular target: T1, human recombinant Yes [a.a. 2–543 (end)] (Homo sapiens, UniProt P07947)
T1 construct: human recombinant Yes [a.a; 2–543 (end)]; purchased BPS Bioscience 40488
Experiment: ADP-Glo kinase assay, inhibition rates of Yes phosphorylation activity (first and second screening)
Assay type: biochemical
Details: 10 μmol L−1 compound; for First screening IR (inhibition rate): mean of n = 4 wells; for Second screening IR (inhibition rate): dissolved from fresh powder, n = 4
Outline: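 Hits from a first pass were rescreened after re-dissolution from fresh powder. The first pass reported the mean inhibition rate of quadruplicate wells per compound. Activity was that of recombinant human Yes [a.a. 2–543] kinase, read out with the ADP-Glo ADP-detection method.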

T1 sequence (P07947 2-543): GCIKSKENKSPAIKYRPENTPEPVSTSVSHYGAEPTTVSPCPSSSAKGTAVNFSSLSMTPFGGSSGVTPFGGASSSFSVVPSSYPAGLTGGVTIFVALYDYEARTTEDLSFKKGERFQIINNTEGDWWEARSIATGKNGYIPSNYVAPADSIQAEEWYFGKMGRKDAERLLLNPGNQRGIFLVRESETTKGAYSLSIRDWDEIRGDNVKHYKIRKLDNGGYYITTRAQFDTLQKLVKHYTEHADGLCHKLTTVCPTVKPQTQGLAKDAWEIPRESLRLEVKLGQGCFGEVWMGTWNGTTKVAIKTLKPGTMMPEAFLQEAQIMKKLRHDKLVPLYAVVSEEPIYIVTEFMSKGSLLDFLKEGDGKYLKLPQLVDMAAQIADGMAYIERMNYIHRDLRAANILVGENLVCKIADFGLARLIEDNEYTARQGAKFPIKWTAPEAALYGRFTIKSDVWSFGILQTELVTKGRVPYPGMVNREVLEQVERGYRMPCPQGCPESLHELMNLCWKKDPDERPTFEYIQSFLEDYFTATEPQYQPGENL

Row | SMILES | First screening IR (inhibition rate) | Second screening IR (inhibition rate)
1 | O=C(NC1CCS(=O)(=O)C1)c1nc(Cl)c(Cl)c(Cl)c1Cl (centres unmarked) [Compound Z118688092] | -7% | 
2 | Cc1ccc(OCCSCc2nc(N)nc(Nc3ccc(F)cc3)n2)cc1 [Compound Z135099694] | 9% | 
3 | Cc1cccc(NC(=O)C2CCCN(c3nc(CN4CCOCC4)nc4sc(C)c(C)c34)C2)n1 (centres unmarked) [Compound Z573238670] | -5% | 
4 | CCCN(S(=O)(=O)c1ccc(Cl)cc1)S(=O)(=O)c1ccc(C)cc1C [Compound Z45422032] | 5% | 
5 | COc1ccc(S(=O)(=O)N[C@@H](C)C(=O)N2CC=C(c3c(OC)cc(OC)cc3OC)CC2)cc1 [Compound Z203177000] | 0% | 
6 | CCCN(C1CCS(=O)(=O)C1)S(=O)(=O)c1ccccc1Cl (centres unmarked) [Compound Z45480819] | -1% | 
7 | Cc1nn(C)c2sc(C(=O)NC3CCN(C(=O)C(C)(C)C)CC3)cc12 [Compound Z421731088] | 3% | 
8 | COC1(C)CC(N(C)C(=O)NC2CCCn3nc(C(C)C)nc32)C1(C)C (centres unmarked) [Compound Z1396774495] | -1% | 
9 | CCCN(CCC)S(=O)(=O)c1ccc(S(C)(=O)=O)cc1 [Compound Z285665192] | 14% | 
10 | Cc1ccc(C)c(CS(=O)(=O)CCCS(=O)(=O)N(C)C)c1 [Compound Z1127660495] | 12% | 
11 | Cc1ccc(-c2c(C)sc3nc(CN4CCN(CC(=O)N5CCCCCC5)CC4)[nH]c(=O)c23)cc1 [Compound Z126044810] | -3% | 
12 | Cc1ccc(N2C(=O)Cc3c2nc(N)c2c(N)nc(N4CCCC4)c(C#N)c32)cc1C [Compound Z55589600] | 15% | 
13 | CNS(=O)(=O)c1ccc2c(c1)nc(-c1cc(C#N)n(C)c1)n2C [Compound Z1837787694] | -2% | 
14 | Cc1sc2nc(-c3cccc(NC(=O)CN4CCN(CC5CCCO5)CC4)c3)[nH]c(=O)c2c1C (centres unmarked) [Compound Z46510296] | 2% | 
15 | O=S1(=O)C=CCC1 [Compound Z56764769] | 9% | 
16 | Cc1ccc(S(=O)(=O)N(C)S(=O)(=O)c2ccc(C#N)cc2)cc1 [Compound Z45549760] | 3% | 
17 | Nc1nccnc1C(=O)Nc1ncc(Cc2cc(F)cc(F)c2)s1 [Compound Z281652038] | -1% | 
18 | CCCCCCCCN1C(=O)/C(=C/c2c(NCCCN3CCOCC3)nc3c(C)cccn3c2=O)SC1=S [Compound Z56863983] | 0% | 
19 | CN(C)S(=O)(=O)c1ccc(CS(=O)(=O)C2CCCC2)o1 [Compound Z1147565999] | -1% | 
20 | CNS(=O)(=O)c1cccc(S(=O)(=O)N(C)C)c1 [Compound Z285953204] | 2% | 
21 | CCN(CC)S(=O)(=O)c1ccc(N2CCc3c(sc(N)c3C#N)C2)c([N+](=O)[O-])c1 [Compound Z166707558] | 1% | 
22 | CCCn1c(=O)[nH]c(=O)c2cc(C(=O)N(CC)Cc3ccc4c(c3)OCO4)cnc21 [Compound Z284160386] | 5% | 
23 | CCCCCNS(=O)(=O)CCS(C)(=O)=O [Compound Z1262455598] | -9% | 
24 | CN(c1cc(C#N)ccn1)S(=O)(=O)c1ccccc1S(C)(=O)=O [Compound Z1833478806] | 7% | 
25 | COc1ccc(C)cc1N1CC(C(=O)Nc2ccc3c(ccn3CCN3CCOCC3)c2)CC1=O (centres unmarked) [Compound Z961849222] | 23% | 
26 | Cc1c(C)c(C)c(C(=O)OCC(=O)NCC(=O)N2CCCC2)c(C)c1C [Compound Z291423432] | -6% | 
27 | CNc1ccc(Nc2nccc(C(F)(F)F)n2)cn1 [Compound Z729056288] | -20% | 
28 | O=S(=O)(c1ccc(Cl)cc1)C1(S(=O)(=O)c2ccc(Cl)cc2)CCCC1 [Compound Z56759577] | -18% | 
29 | CC(C)(C)Oc1cccc(CN2CCC(c3c[nH]c4ncccc34)CC2)n1 [Compound Z1564730073] | 12% | 
30 | CNc1nc(NC2CCOC2c2ccc(F)c(F)c2)ncc1Br (centres unmarked) [Compound Z1765170433] | 3% | 

Other lines, results leading:

Row | First screening IR (inhibition rate) | Second screening IR (inhibition rate) | SMILES
31 | 10% |  | CCn1ncc2c(C(=O)Nc3ncc(C)s3)cc(-c3ccccc3)nc21 [Compound Z224316064]
32 | 18% |  | Cc1ccc(Cn2c(=O)c3ccccc3n3c(CCC(=O)NCCCN4CCC(C)CC4)nnc23)cc1 [Compound Z1169067743]
33 | 29% |  | C=CCN1C(=O)c2ccc(C(=O)OCc3cn4ccccc4n3)cc2C1=O [Compound Z16715300]
34 | 3% |  | O=C(NCc1ccc(-n2ccnc2)nc1)c1ccc(-c2ccccc2)cc1 [Compound Z363639532]
35 | 4% |  | CCOC(=O)c1c(NC(=O)c2ccc(C(C)(C)C)cc2)n(CCCN2CCOCC2)c2nc3ccccc3nc12 [Compound Z56786201]
36 | 30% |  | CCCc1cc(=O)oc2cc(OCC(=O)N(C)CC3COc4ccccc4O3)ccc12 (centres unmarked) [Compound Z97092537]
37 | 36% | 0% | Cc1n[nH]c(C)c1S(=O)(=O)Nc1cccc(/C=C/c2ccccn2)c1 [Compound Z45649828]
38 | -5% |  | CCC(NC(=O)c1cc(C)nc2c1cnn2C(C)C)c1ccc(C)cc1 (centres unmarked) [Compound Z203056244]
39 | 13% |  | CN(C)C(=O)Cc1ccccc1NCc1ccc(-n2ccnc2)cc1 [Compound Z1462566317]
40 | 13% |  | Cc1c(C#N)c(NC(=O)CN2CCN(c3ncnc4c3cnn4C)CC2)n(Cc2ccccc2)c1C [Compound Z234865770]
41 | 41% |  | O=C(NCCCn1ccnc1)C1CCN(C(=O)c2ccc(F)cc2)CC1 [Compound Z30216742]
42 | 7% |  | CCc1cccc(NC(=O)COC(=O)Cc2cccc3ccccc23)c1 [Compound Z19678477]
43 | 5% |  | Fc1ccc(-n2cc(-c3ccccc3)c3c(N4CCOCC4)ncnc32)cc1 [Compound Z57455467]
44 | 7% |  | NC(=O)CCn1c(SCc2cn3ccccc3n2)nnc1-c1cccs1 [Compound Z269761360]
45 | 5% |  | CC(C)(C)OC(=O)N1CCN(C(=O)c2cc(-c3ccccc3)nc3c2cnn3Cc2ccncc2)CC1 [Compound Z238073806]
46 | -5% |  | Cc1cc(NC(=O)c2cc3c(F)cccc3s2)n(CCC#N)n1 [Compound Z826713980]
47 | 8% |  | CC1CCc2c(sc3nc4c(c(-c5ccco5)c23)-c2ccccc2CC4)C1.Cl (centres unmarked) [Compound Z76887050]
48 | -5% |  | O=S(=O)(c1cccc(Cl)c1Cl)N1CCN(Cc2nc(-c3ccc(F)cc3)no2)CC1 [Compound Z52670207]
49 | 2% |  | Cc1cccc(NCC2CCN(Cc3cccc(C(N)=O)c3)C2)n1 (centres unmarked) [Compound Z990551490]
50 | -19% |  | CCOC(=O)N(C)c1ccc(Nc2nccc(C(F)(F)F)n2)cc1 [Compound Z805455424]

Row | First screening IR (inhibition rate) | Second screening IR (inhibition rate) | SMILES
51 | -8% |  | Cc1ccnn1-c1ccc(C(=O)N2CCC(N3CCCC3C(N)=O)CC2)cc1 (centres unmarked) [Compound Z968814168]
52 | 26% | -17% | COc1ccc(/C=N/Nc2ccnc3cc(Cl)ccc23)cc1O [Compound Z49625943]
53 | -7% |  | CCOC(=O)/C(C#N)=C\C1=C2OC(c3ccccc3)=CC(c3ccccc3)=C2CCC1 [Compound Z56780975]
54 | -10% |  | CC(C)n1ncc2c(C(=O)Nc3ccccc3)cc(-c3ccccc3)nc21 [Compound Z51820408]
55 | 6% |  | CC(C)c1noc(C(C)S(=O)(=O)C/C=C/c2ccccc2)n1 (centres unmarked) [Compound Z436400008]
56 | 9% |  | O=C(CN1CCN(c2nc(-c3cccnc3)nc3scc(-c4ccccc4)c23)CC1)N1CCCCC1 [Compound Z165261498]
57 | -7% |  | O=C(NCCc1cnn(-c2ccccc2)c1)c1cnn(-c2ccccc2)c1 [Compound Z234515634]
58 | 11% |  | O=C1OCCN1Cc1ccc(Nc2nccc(C(F)(F)F)n2)cc1 [Compound Z646432252]
59 | -1% |  | Cc1cc(C)c(NC(=O)CNC(=O)COc2ccccc2C(=O)N2CCCCC2)c(C)c1 [Compound Z25138787]
60 | 30% |  | COc1ccc(/C=C2/CC(C)Cc3c2nc2ccccc2c3C(=O)OCC(N)=O)cc1 (centres unmarked) [Compound Z15674725]
61 | -5% |  | O=C(Cc1csc(NC(=O)c2ccccc2F)n1)NCC1Cc2ccccc2O1 (centres unmarked) [Compound Z420283836]
62 | 0% |  | CCCNC(=O)CN(CCC)C(=O)c1cc(-c2ccccc2)nc2c1cnn2CC [Compound Z729700802]
63 | -5% |  | O=C(NCc1cccc(C(F)(F)F)c1)Nc1ccc(NC(=O)c2ccco2)cc1 [Compound Z412775872]
64 | 25% |  | Cn1cc(NC(=O)C2(c3cccc(C(F)(F)F)c3)CC2)cn1 [Compound Z1068296272]
65 | 6% |  | O=C(NCc1cccc(C(F)(F)F)c1)c1n[nH]c(=O)c2ccccc12 [Compound Z29859952]
66 | -11% |  | COCCN1C(=O)/C(=C/c2c(N3CCN(Cc4ccccc4)CC3)nc3ccc(C)cn3c2=O)SC1=S [Compound Z56850824]
67 | -11% |  | Cc1c(C(=O)Nc2ccc3c(ccn3CCN3CCOCC3)c2)nnn1-c1ccc(F)cc1 [Compound Z961847812]
68 | 60% |  | Nc1nc(N2CC=C(c3ccccc3F)CC2)c2[nH]cnc2n1 [Compound Z1699229618]
69 | 6% |  | CCn1c(C)cc(C(=O)N2CCc3[nH]c4ccccc4c3C2)c1C [Compound Z231937310]

Reference: paper PMC5607274, “An iterative compound screening contest method for identifying target protein inhibitors using the tyrosine-protein kinase Yes” (Scientific Reports, 2017)
